In US5668133A, “Ophthalmic compositions comprising emedastine and methods for their use” (priority 1995, dated 1997):

Test system: passive anaphylaxis in guinea pig conjunctiva
Test: passive conjunctival anaphylaxis, i.v. antigen challenge
Type: in vivo
Protocol: Male Dunkin Hartley Viral Antibody Free outbred guinea pigs (Charles River Labs, Portage, Mich.), weighing approximately 250-350 grams (6/group) were injected intravenously (i.v.) via the marginal ear vein with 1.0 mL of Evans Blue dye (1.0 mg/mL). Forty-five (45) minutes post dye injection, 20 μL of test compound or saline vehicle was applied topically to one eye of each experimental animal. Thirty minutes following topical drug application, the guinea pigs were anesthetized and challenged subconjunctivally with histamine (300 ng/10 μL). Responses were quantitated as described by Yanni et al. in Int. Arch. Allergy Immunol., 101:102-106 (1993). Response scores from the treated groups were then compared with scores obtained in the saline-treated group using Dunnett's t test (Dunnett C. W., "A multiple comparison procedure for comparing treatments with a control." J. Am. Stat. Assoc. 50:1096-1121(1955)). Regression analysis was used to determine relative potency (Bliss, C. and E. Gjorgy. In Vitamin Methods, Vol. 2, pp. 445-610, Academic Press, Inc., New York, 1951.).
Emedastine difumarate was evaluated for its ability to inhibit a passive conjunctival immediate hypersensitivity response following topical ocular administration.
Guinea pigs (5-8/group) were passively sensitized with anti-ovalbumin serum injected subconjunctivally in one eye. Twenty-four hours after passive sensitization, ovalbumin (OA) was administered either i.v. or topically to the eye.
The allergic response following i.v. antigen challenge was assessed as follows: thirty minutes prior to challenge, animals received 20 μL of emedastine difumarate or saline applied topically to the eye. Guinea pigs were then challenged i.v. via the marginal ear vein with 1.0 mL of a solution containing 100 μg of OA and 1 mg of Evans Blue dye. Responses were quantitated as previously described in Example 2.

[1] = i.v. antigen challenge, 30 min before challenge

Question: What does the source list for `CCOCCn1c(N2CCCN(C)CC2)nc2ccccc21` [Emedastine Difumarate, 1-(2-ethoxyethyl)-2-(4-methyl-1-homopiperazinyl)-benzimidazole]?
Answer: reduction of the allergic response (0.001% and 0.01% solutions, 30 minutes before i.v. antigen challenge): significant reductions of the allergic response; % Change (i.v. antigen challenge, 0.0001 wt %, 30 min before challenge): -41%; % Change (i.v. antigen challenge, 0.001 wt %, 30 min before challenge): -66%; % Change (i.v. antigen challenge, 0.01 wt %, 30 min before challenge): -96%; ED50 [1]: 0.00022 wt %; ED50 (text) [1]: 0.00022%
